Experimental data reported in ChEMBL document CHEMBL5608163, “Structure modification of anoplin for fighting resistant bacteria” (Eur J Med Chem, 2024).
Values after ≈ are worked out from the molar mass of the structure shown. Square brackets hold non-standard residues; d marks the D form. Peptide text beside a SMILES is read from it. * marks the point of attachment. NMeR = CN[C@@H](CCCNC(=N)N)C(=O)O; NMeI = CC[C@H](C)[C@H](NC)C(=O)O; NMeL = CN[C@@H](CC(C)C)C(=O)O; Undecanoyl = CCCCCCCCCCC(=O)*; NMeK = CN[C@@H](CCCCN)C(=O)O; Nonanoyl = CCCCCCCCC(=O)*

How the values were obtained:
Format in all cases: functional
Klebsiella pneumoniae [1] = assay: Antimicrobial activity against Klebsiella pneumoniae ATCC 700603 assessed as reduction in microbial growth incubated for 18 hrs by Mueller-Hinton Broth based microdilution assay
Bacillus subtilis [2] = assay: Antimicrobial activity against Bacillus subtilis ATCC 23857 assessed as reduction in microbial growth incubated for 18 hrs by Mueller-Hinton Broth based microdilution assay
Escherichia coli [3] = assay: Antibacterial activity against Escherichia coli ATCC 25922 assessed as reduction in bacterial growth incubated for 18 hrs by Mueller-Hinton Broth based microdilution assay
Pseudomonas aeruginosa [4] = assay: Antimicrobial activity against Pseudomonas aeruginosa ATCC 27853 assessed as reduction in microbial growth incubated for 18 hrs by Mueller-Hinton Broth based microdilution assay
Staphylococcus aureus [5] = assay: Antibacterial activity against Staphylococcus aureus ATCC 25923 assessed as reduction in bacterial growth incubated for 18 hrs by Mueller-Hinton Broth based microdilution assay
Staphylococcus aureus [6] = assay: Antibacterial activity against Staphylococcus aureus ATCC 25923 assessed as reduction in bacterial cell growth measured for 18 hrs by Mueller-Hinton broth based two-fold serial dilution method
Bacillus subtilis [7] = assay: Antibacterial activity against Bacillus subtilis ATCC 23857 assessed as reduction in bacterial cell growth measured for 18 hrs by Mueller-Hinton broth based two-fold serial dilution method
Escherichia coli [8] = assay: Antibacterial activity against Escherichia coli ATCC 25922 assessed as reduction in bacterial cell growth measured for 18 hrs by Mueller-Hinton broth based two-fold serial dilution method
Pseudomonas aeruginosa [9] = assay: Antibacterial activity against Pseudomonas aeruginosa ATCC 27853 assessed as reduction in bacterial cell growth measured for 18 hrs by Mueller-Hinton broth based two-fold serial dilution method
Klebsiella pneumoniae [10] = assay: Antibacterial activity against Klebsiella pneumoniae ATCC 700603 assessed as reduction in bacterial cell growth measured for 18 hrs by Mueller-Hinton broth based two-fold serial dilution method

| MIC (Klebsiella pneumoniae [1]) [µM] | MIC (Bacillus subtilis [2]) [µM] | MIC (Escherichia coli [3]) [µM] | MIC (Pseudomonas aeruginosa [4]) [µM] | MIC (Staphylococcus aureus [5]) [µM] | MIC (Staphylococcus aureus [6]) [µM] | MIC (Bacillus subtilis [7]) [µM] | MIC (Escherichia coli [8]) [µM] | MIC (Pseudomonas aeruginosa [9]) [µM] | MIC (Klebsiella pneumoniae [10]) [µM] | Compound |
| --- | --- | --- | --- | --- | --- | --- | --- | --- | --- | --- |
| > 128 | 128 | > 128 | 28 | > 128 |  |  |  |  |  | CC[C@H](C)[C@H](NC(=O)[C@H](CCCNC(=N)N)NC(=O)[C@H](CCCCN)NC(=O)[C@H](CC(C)C)NC(=O)[C@H](CC(C)C)NC(=O)CN)C(=O)N[C@@H](CCCCN)C(=O)N[C@H](C(=O)N(C)[C@@H](CC(C)C)C(=O)N[C@@H](CC(C)C)C(N)=O)[C@@H](C)O (H-GLLKRIKT[NMeL]L-NH2) |
| > 128 | 128 | > 128 | 64 | > 128 |  |  |  |  |  | CC[C@H](C)[C@H](NC(=O)[C@H](CCCNC(=N)N)NC(=O)[C@H](CCCCN)N(C)C(=O)[C@H](CC(C)C)NC(=O)[C@H](CC(C)C)NC(=O)CN)C(=O)N[C@@H](CCCCN)C(=O)N[C@H](C(=O)N[C@@H](CC(C)C)C(=O)N[C@@H](CC(C)C)C(N)=O)[C@@H](C)O (H-GLL[NMeK]RIKTLL-NH2) |
| > 128 | 128 | > 128 | 128 | > 128 |  |  |  |  |  | CC[C@H](C)[C@H](NC(=O)[C@H](CCCNC(=N)N)N(C)C(=O)[C@H](CCCCN)NC(=O)[C@H](CC(C)C)NC(=O)[C@H](CC(C)C)NC(=O)CN)C(=O)N[C@@H](CCCCN)C(=O)N[C@H](C(=O)N[C@@H](CC(C)C)C(=O)N[C@@H](CC(C)C)C(N)=O)[C@@H](C)O (H-GLLK[NMeR]IKTLL-NH2) |
|  |  |  |  |  | 8 (≈ 10.6 µg/mL) | 4 (≈ 5.29 µg/mL) | 8 (≈ 10.6 µg/mL) | 8 (≈ 10.6 µg/mL) | 8 (≈ 10.6 µg/mL) | CCCCCCCCCCC(=O)NCC(=O)N[C@@H](CC(C)C)C(=O)N[C@@H](CC(C)C)C(=O)N[C@@H](CCCCN)C(=O)N[C@@H](CCCNC(=N)N)C(=O)N[C@H](C(=O)N[C@@H](CCCCN)C(=O)N[C@H](C(=O)N[C@@H](CC(C)C)C(=O)N[C@@H](CC(C)C)C(N)=O)[C@@H](C)O)[C@@H](C)CC (Undecanoyl-GLLKRIKTLL-NH2) |
| > 128 | > 128 | > 128 | 128 | > 128 |  |  |  |  |  | CC[C@H](C)[C@H](NC(=O)[C@H](CCCNC(=N)N)NC(=O)[C@H](CCCCN)NC(=O)[C@H](CC(C)C)NC(=O)[C@H](CC(C)C)N(C)C(=O)CN)C(=O)N[C@@H](CCCCN)C(=O)N[C@H](C(=O)N[C@@H](CC(C)C)C(=O)N(C)[C@@H](CC(C)C)C(N)=O)[C@@H](C)O (H-G[NMeL]LKRIKTL[NMeL]-NH2) |
|  |  |  |  |  | 8 (≈ 10.4 µg/mL) | 4 (≈ 5.18 µg/mL) | 8 (≈ 10.4 µg/mL) | 8 (≈ 10.4 µg/mL) | 16 (≈ 20.7 µg/mL) | CCCCCCCCC(=O)NCC(=O)N[C@@H](CC(C)C)C(=O)N[C@@H](CC(C)C)C(=O)N[C@@H](CCCCN)C(=O)N[C@@H](CCCNC(=N)N)C(=O)N[C@H](C(=O)N[C@@H](CCCCN)C(=O)N[C@H](C(=O)N[C@@H](CC(C)C)C(=O)N[C@@H](CC(C)C)C(N)=O)[C@@H](C)O)[C@@H](C)CC (Nonanoyl-GLLKRIKTLL-NH2) |
| > 128 | 128 | > 128 | > 128 | > 128 |  |  |  |  |  | CC[C@H](C)[C@@H](C(=O)N[C@@H](CCCCN)C(=O)N[C@H](C(=O)N[C@@H](CC(C)C)C(=O)N[C@@H](CC(C)C)C(N)=O)[C@@H](C)O)N(C)C(=O)[C@H](CCCNC(=N)N)NC(=O)[C@H](CCCCN)NC(=O)[C@H](CC(C)C)NC(=O)[C@H](CC(C)C)NC(=O)CN (H-GLLKR[NMeI]KTLL-NH2) |
